Test results as given in patent publication US7638514B2, “Pesticidally active phenol derivatives” (Syngenta Crop Protection, Inc., priority 2003, dated 2009).

Tests used:
Type in all cases: in vivo
[1] = system: Heliothis virescens caterpillars; test: Action against Heliothis virescens caterpillars; conditions: 144 h, 400 ppm spray mixture on young soybean plants, 10 caterpillars in the first stage, evaluation 6 days later, read-out: percentage reduction in population and percentage reduction in feeding damage (% activity)
Procedure: (§1) Young soybean plants are sprayed with an aqueous emulsion spray mixture comprising 400 ppm of test compound. After the spray-coating has dried, the soybean plants are populated with 10 caterpillars of Heliothis virescens in the first stage and placed in a plastics container. Evaluation is made 6 days later. The percentage reduction in population and the percentage reduction in feeding damage (% activity) are determined by comparing the number of dead caterpillars and the feeding damage on the treated plants with that on the untreated plants.

[2] = system: Plutella xylostella caterpillars; test: Action against Plutella xylostella caterpillars; conditions: 72 h, 400 ppm spray mixture on young cabbage plants, 10 caterpillars in the third stage, evaluation 3 days later, read-out: percentage reduction in population and percentage reduction in feeding damage (% activity)
Procedure: as §1, with “cabbage” for “soybean”, “Plutella xylostella” for “Heliothis virescens”, “third” for “first”, “3” for “6”

[3] = system: Spodoptera littoralis caterpillars; test: Action against Spodoptera littoralis; conditions: 72 h, 400 ppm spray mixture on young soybean plants, 10 caterpillars in the first stage, 3 days later, read-out: percentage reduction in population and percentage reduction in feeding damage (% activity)
Procedure: Young soybean plants are sprayed with an aqueous emulsion spray mixture comprising 400 ppm of test compound and, after the spray-coating has dried, the plants are populated with 10 caterpillars of Spodoptera littoralis in the first stage and then placed in a plastics container, 3 days later, the percentage reduction in population and the percentage reduction in feeding damage (% activity) are determined by comparing the number of dead caterpillars and the feeding damage on the treated plants with that on untreated plants.

Measured: inhibition at 400 ppm

O=C(NCCCOc1c(Cl)cc(OCC=C(Cl)Cl)cc1Cl)C(=C(Cl)Cl)c1ccc(C(F)(F)F)cc1 [Compound 1.2, 3,3-dichloro-N-{3-[2,6-dichloro-4-(3,3-dichloro-allyloxy)-phenoxy]-propyl}-2-(4-trifluoromethyl-phenyl)-acrylamide]
> 80%: all assays above

C=C(COc1ccc(C(F)(F)F)cc1)COc1c(Cl)cc(OCC=C(Cl)Cl)cc1Cl [Compound 1.9, 1,3-dichloro-5-(3,3-dichloro-allyloxy)-2-[2-(4-trifluoromethyl-phenoxymethyl)-allyloxy]-benzene]
> 80%: all assays above
